Measurements from ChEMBL document CHEMBL3885881, “DrugMatrix”.

Species: Rattus norvegicus
Experiment: DrugMatrix - Regimen: Daily Repeat
Assay type: toxicity, organism-based, Sprague-Dawley
Design: regimen Daily Repeat, gender Male, age 6-8 weeks
Conditions: in vivo, po, route oral GAVAGE, vehicle 100 % WATER; for ABSOLUTE BASOPHIL / ABSOLUTE EOSINOPHIL / ABSOLUTE LYMPHOCYTE / ABSOLUTE MONOCYTE / ABSOLUTE SEGMENTED NEUTROPHIL / BASOPHIL / EOSINOPHIL / ERYTHROCYTE COUNT / HEMATOCRIT / HEMOGLOBIN / LEUKOCYTE COUNT / LYMPHOCYTE / MEAN CORPUSCULAR HEMOGLOBIN / MEAN CORPUSCULAR HEMOGLOBIN CONCENTRATION / MEAN CORPUSCULAR VOLUME / MONOCYTE / NEUTROPHIL / NUCLEATED RED BLOOD CELLS / PLATELET COUNT: tissue Blood; for ALANINE AMINOTRANSFERASE / ALBUMIN / ALKALINE PHOSPHATASE / ASPARTATE AMINOTRANSFERASE / BLOOD UREA NITROGEN / CARBON DIOXIDE / CHLORIDE / CHOLESTEROL / CREATINE PHOSPHOKINASE / CREATININE / GLUCOSE / LACTATE DEHYDROGENASE / LIPASE / PHOSPHORUS / POTASSIUM / SODIUM / TOTAL BILIRUBIN / TOTAL PROTEIN / URIC ACID: tissue Plasma
[1] = 20 mg/kg, 120 h, dose level Low, time 5 day
[2] = 70 mg/kg, 72 h, dose level High, time 3 day
[3] = 70 mg/kg, 120 h, dose level High, time 5 day

C=CCC1(C(C)CCC)C(=O)NC(=O)NC1=O (centres undefined) [SECOBARBITAL]
ABSOLUTE BASOPHIL [1]: 0 CELLS/uL | ABSOLUTE EOSINOPHIL [1]: 32 CELLS/uL | ABSOLUTE LYMPHOCYTE [1]: 7003.67 CELLS/uL | ABSOLUTE MONOCYTE [1]: 32 CELLS/uL | ABSOLUTE SEGMENTED NEUTROPHIL [1]: 565.67 CELLS/uL | BASOPHIL [1]: 0% | EOSINOPHIL [1]: 0.33% | ERYTHROCYTE COUNT [1]: 5.26 x10E6/uL | HEMATOCRIT [1]: 32.97% | HEMOGLOBIN [1]: 12.83 G/DL | LEUKOCYTE COUNT [1]: 7.63 x10E3/uL | LYMPHOCYTE [1]: 92% | MEAN CORPUSCULAR HEMOGLOBIN [1]: 24.43 pg | MEAN CORPUSCULAR HEMOGLOBIN CONCENTRATION [1]: 38.97 G/DL | MEAN CORPUSCULAR VOLUME [1]: 62.7 fL | MONOCYTE [1]: 0.33% | NEUTROPHIL [1]: 7.33% | NUCLEATED RED BLOOD CELLS [1]: 0.33 /100WBC | PLATELET COUNT [1]: 1182 x10E3/uL | ALANINE AMINOTRANSFERASE [1]: 49.33 u/L | ALBUMIN [1]: 3.97 G/DL | ALKALINE PHOSPHATASE [1]: 382 u/L | ASPARTATE AMINOTRANSFERASE [1]: 77.67 u/L | BLOOD UREA NITROGEN [1]: 13.67 mg/dL | CARBON DIOXIDE [1]: 34 mmol/L | CHLORIDE [1]: 99 MEQ/L | CHOLESTEROL [1]: 77.33 mg/dL | CREATINE PHOSPHOKINASE [1]: 254 u/L | CREATININE [1]: 0.16 mg/dL | GLUCOSE [1]: 144 mg/dL | LACTATE DEHYDROGENASE [1]: 142.33 u/L | LIPASE [1]: 9 u/L | PHOSPHORUS [1]: 11.07 mg/dL | POTASSIUM [1]: 5.94 MEQ/L | SODIUM [1]: 144.5 MEQ/L | TOTAL BILIRUBIN [1]: 0.17 mg/dL | TOTAL PROTEIN [1]: 5.87 G/DL | URIC ACID [1]: 0.4 mg/dL | ABSOLUTE BASOPHIL [2]: 0 CELLS/uL | ABSOLUTE EOSINOPHIL [2]: 0 CELLS/uL | ABSOLUTE LYMPHOCYTE [2]: 6560.67 CELLS/uL | ABSOLUTE MONOCYTE [2]: 45.33 CELLS/uL | ABSOLUTE SEGMENTED NEUTROPHIL [2]: 794 CELLS/uL | BASOPHIL [2]: 0% | EOSINOPHIL [2]: 0% | ERYTHROCYTE COUNT [2]: 5.13 x10E6/uL | HEMATOCRIT [2]: 31.93% | HEMOGLOBIN [2]: 12.3 G/DL | LEUKOCYTE COUNT [2]: 7.4 x10E3/uL | LYMPHOCYTE [2]: 88.67% | MEAN CORPUSCULAR HEMOGLOBIN [2]: 24 pg | MEAN CORPUSCULAR HEMOGLOBIN CONCENTRATION [2]: 38.53 G/DL | MEAN CORPUSCULAR VOLUME [2]: 62.27 fL | MONOCYTE [2]: 0.67% | NEUTROPHIL [2]: 10.67% | NUCLEATED RED BLOOD CELLS [2]: 0.33 /100WBC | PLATELET COUNT [2]: 827 x10E3/uL | ALANINE AMINOTRANSFERASE [2]: 56.67 u/L | ALBUMIN [2]: 4.03 G/DL | ALKALINE PHOSPHATASE [2]: 339 u/L | ASPARTATE AMINOTRANSFERASE [2]: 83 u/L | BLOOD UREA NITROGEN [2]: 12 mg/dL | CARBON DIOXIDE [2]: 34.67 mmol/L | CHLORIDE [2]: 98.67 MEQ/L | CHOLESTEROL [2]: 74.67 mg/dL | CREATINE PHOSPHOKINASE [2]: 397.33 u/L | CREATININE [2]: 0.11 mg/dL | GLUCOSE [2]: 142.33 mg/dL | LACTATE DEHYDROGENASE [2]: 178.33 u/L | LIPASE [2]: 9.67 u/L | PHOSPHORUS [2]: 11.4 mg/dL | POTASSIUM [2]: 6.11 MEQ/L | SODIUM [2]: 143 MEQ/L | TOTAL BILIRUBIN [2]: 0.17 mg/dL | TOTAL PROTEIN [2]: 5.87 G/DL | URIC ACID [2]: 0.63 mg/dL | ABSOLUTE BASOPHIL [3]: 0 CELLS/uL | ABSOLUTE EOSINOPHIL [3]: 40.33 CELLS/uL | ABSOLUTE LYMPHOCYTE [3]: 5577 CELLS/uL | ABSOLUTE MONOCYTE [3]: 23 CELLS/uL | ABSOLUTE SEGMENTED NEUTROPHIL [3]: 693 CELLS/uL | BASOPHIL [3]: 0% | EOSINOPHIL [3]: 0.67% | ERYTHROCYTE COUNT [3]: 5.58 x10E6/uL | HEMATOCRIT [3]: 33.8% | HEMOGLOBIN [3]: 13.07 G/DL | LEUKOCYTE COUNT [3]: 6.33 x10E3/uL | LYMPHOCYTE [3]: 88% | MEAN CORPUSCULAR HEMOGLOBIN [3]: 23.4 pg | MEAN CORPUSCULAR HEMOGLOBIN CONCENTRATION [3]: 38.67 G/DL | MEAN CORPUSCULAR VOLUME [3]: 60.5 fL | MONOCYTE [3]: 0.33% | NEUTROPHIL [3]: 11% | NUCLEATED RED BLOOD CELLS [3]: 0.33 /100WBC | PLATELET COUNT [3]: 1210.33 x10E3/uL | ALANINE AMINOTRANSFERASE [3]: 59.33 u/L | ALBUMIN [3]: 4.03 G/DL | ALKALINE PHOSPHATASE [3]: 373.67 u/L | ASPARTATE AMINOTRANSFERASE [3]: 85.33 u/L | BLOOD UREA NITROGEN [3]: 15.33 mg/dL | CARBON DIOXIDE [3]: 32.33 mmol/L | CHLORIDE [3]: 100 MEQ/L | CHOLESTEROL [3]: 63.33 mg/dL | CREATINE PHOSPHOKINASE [3]: 260.67 u/L | CREATININE [3]: 0.13 mg/dL | GLUCOSE [3]: 147 mg/dL | LACTATE DEHYDROGENASE [3]: 127.67 u/L | LIPASE [3]: 9 u/L | PHOSPHORUS [3]: 10.93 mg/dL | POTASSIUM [3]: 5.66 MEQ/L | SODIUM [3]: 145.65 MEQ/L | TOTAL BILIRUBIN [3]: 0.1 mg/dL | TOTAL PROTEIN [3]: 5.8 G/DL | URIC ACID [3]: 0.73 mg/dL
